One may read the IC50 as the concentration that gives 50% inhibition. As a reminder, the DC50 is the concentration giving 50% degradation. A higher DC50 goes with a less potent degrader. By Dmax is commonly meant the largest share of the target that was removed. Read a low Dmax as shallow degradation.

Bounds are passed on as bounds.

Test [1] concerns the target T1, ERα (Homo sapiens, UniProt P03372).
T1 sequence (P03372 1-595): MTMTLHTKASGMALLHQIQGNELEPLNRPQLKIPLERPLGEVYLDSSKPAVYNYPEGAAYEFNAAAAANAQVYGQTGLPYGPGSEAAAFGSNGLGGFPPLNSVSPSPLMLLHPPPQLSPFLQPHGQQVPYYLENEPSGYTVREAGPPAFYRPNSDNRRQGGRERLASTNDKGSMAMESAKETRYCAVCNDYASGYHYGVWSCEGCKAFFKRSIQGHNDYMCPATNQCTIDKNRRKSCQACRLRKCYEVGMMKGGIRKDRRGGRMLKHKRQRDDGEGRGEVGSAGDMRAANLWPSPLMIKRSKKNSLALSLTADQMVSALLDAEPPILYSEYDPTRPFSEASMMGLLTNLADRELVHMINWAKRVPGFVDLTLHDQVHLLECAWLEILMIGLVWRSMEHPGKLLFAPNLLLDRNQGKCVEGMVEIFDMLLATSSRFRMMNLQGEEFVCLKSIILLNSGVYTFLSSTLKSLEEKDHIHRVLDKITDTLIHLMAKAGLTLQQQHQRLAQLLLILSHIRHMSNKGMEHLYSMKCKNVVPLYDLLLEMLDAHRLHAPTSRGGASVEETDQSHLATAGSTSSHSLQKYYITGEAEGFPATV
Put plainly: ERE luciferase reporter gene assay in T47D-KBluc cells (target engagement). Also noted: T47D human breast cancer cells stably transfected with estrogen responsive element/promoter/luciferase reporter gene; host or cells: T47D-KBluc cells. Particulars: 10% FBS, 24 hours, Table 2 VHL centric PROTACs, read-out: IC50. It counts as cell-based. An outline of the steps:
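T47D-KBluc breast cancer cells, which carry a stable ERE-luciferase reporter, were grown in RPMI with 10% FBS (about 10 pM estrogen) and exposed to PROTACs for 24 h. The 12-point, 3-fold series ran from 300 nM to 2 pM. Luciferase was read after lysis, and IC50 was fitted from duplicates.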
Background: In a reporter assay the amount or activity of a reporter protein is the signal.

Test [2] addresses T1, ERα. Description: Estrogen receptor-alpha (ERα) degradation assay in MCF-7 cells using western blot. Also noted: assessed for their activity in degrading ERα in MCF-7 cells via western blot; endogenous in cells; host or cells: MCF7 cells. Particulars: ER-alpha degradation, MCF7 cells, 3 days of incubation. Format: cell-based. As to the method: Compounds prepared in this application were also analyzed for the degradation of ERα in MCF7 and T47D cells.
Estrogen Receptor-Alpha (ERα) Degradation Assay in MCF-7 Cells Using Western Blot Method for Table 4.
The exemplary novel ERα degraders were assessed for their activity in degrading ERα in MCF-7 cells via western blot. The assay was carried out in the presence of 10% fetal bovine serum (FBS) or high percentage of human or mouse serum.
MCF7 cells were grown in DMEM/F12 with 10% fetal bovine serum and seeded at 24,000 cells per well in 100 μl into 96-well clear tissue culture plates. The following day, the cells were treated with PROTACs in a […] concentration curve with 100 nM being the top concentration and serial dilutions to make the other concentrations (30 nM, 10 nM, 3 nM, 1 nM, and 0.3 nM). At all concentrations, 0.01% DMSO is the final concentration in the well. The following day, the plates are aspirated, washed with 50 μl of cold PBS. The cells are lysed with 50 μl/well 4° C. Cell Lysis Buffer (Catalog #9803; Cell Signaling Technology, Danvers, Mass.) (20 mM Tris-HCL (pH 7.5), 150 mM NaCl, 1 mM […], 1 mM EGTA, 1% Triton, 2.5 mM sodium pyrophosphate, 1 mM B-glycerophosphate, 1 mM sodium vanadate, 1 ug/ml leupeptin). Lysates were clarified at 16,000×g for 10 minutes, and 2 μg of protein was subjected to SDS-PAGE analysis and followed by immunoblotting according to standard protocols. The antibodies used were ERα (Cell Signaling Technologies Catalog #8644), and Tubulin (Sigma Catalog #T9026; St. Louis, Mo.). Detection reagents were Clarity Western ECL substrate (Bio-Rad Catalog #170-5060; Hercules, Calif.).
Alternatively, MCF7 cells were grown in DMEM/F12 with 10% fetal bovine serum and seeded at 24,000 cells per well in 500 μl in 24-well clear tissue culture plates. The following day, the cells were treated with PROTACs in a 5-point concentration curve (100 nM, 33 nM, 11 nM, 3.7 nM, and 1.2 nM) in the presence of 0.01% DMSO. After 72 hours, the wells are aspirated and washed with 500 μl of PBS. The cells are lysed with 100 μl/well 4° C. Cell Lysis Buffer (Catalog #9803; Cell Signaling Technology, Danvers, M A) (20 mM Tris-HCL (pH 7.5), 150 mM NaCl, 1 mM Na2EDTA, 1 mM EGTA, 1% Triton, 2.5 mM sodium pyrophosphate, 1 mM B-glycerophosphate, 1 mM sodium vanadate, 1 ug/ml leupeptin). Lysates were clarified at 16,000×g for 10 minutes, and 2 μg of protein was subjected to SDS-PAGE analysis and followed by immunoblotting according to standard protocols. The antibodies used were ER(X (Cell Signaling Technologies Catalog #8644), and Tubulin (Sigma Catalog #T9026; St. Louis, Mo.). Detection reagents were Clarity Western ECL substrate (Bio-Rad Catalog #170-5060; Hercules, Calif.).

In the case of `Cc1ncsc1-c1ccc([C@H](C)NC(=O)[C@@H]2C[C@@H](O)CN2C(=O)[C@@H](NC(=O)Cc2ccc(-c3ccn(CCOc4ccc(Oc5c(-c6ccc(F)cc6)sc6cc(O)ccc56)cc4)n3)cc2)C(C)(C)C)cc1` [Compound 141, (2S,4R)-1-[(2S)-2-[2-(4-[1-[2-(4-[[2-(4-fluorophenyl)-6-hydroxy-1-benzothiophen-3-yl]oxy]phenoxy)ethyl]-1H-pyrazol-3-yl]phenyl)acetamido]-3,3-dimethylbutanoyl]-4-hydroxy-N-[(1S)-1-[4-(4-methyl-1,3-thiazol-5-yl)phenyl]ethyl]pyrrolidine-2-carboxamide], the IC50 at ERα [1] was found to be 1.5 nM. For the same molecule, at ERα [2], the DC50 was in the range of 1 to 10 nM and the Dmax is more than 75%.

With `Cc1ncsc1-c1ccc([C@H](C)NC(=O)[C@@H]2C[C@@H](O)CN2C(=O)[C@@H](NC(=O)COCCOCCN2CCC(c3ccc(Oc4c(-c5ccc(F)cc5)sc5cc(O)ccc45)cc3)CC2)C(C)(C)C)cc1` [Compound 142, (2S,4R)-1-[(2S)-2-[2-(2-[2-[4-(4-[[2-(4-fluorophenyl)-6-hydroxy-1-benzothiophen-3-yl]oxy]phenyl)piperidin-1-yl]ethoxy]ethoxy)acetamido]-3,3-dimethylbutanoyl]-4-hydroxy-N-[(1S)-1-[4-(4-methyl-1,3-thiazol-5-yl)phenyl]ethyl]pyrrolidine-2-carboxamide], at ERα [1], the IC50 came out at 0.5 nM. Moreover, on ERα [2], the DC50 is less than 1 nM and the Dmax is more than 75%.

For the molecule `C[C@H](NC(=O)[C@@H]1C[C@@H](O)CN1C(=O)[C@@H](NC(=O)COCCOCCN1CCC(c2ccc(Oc3c(-c4ccc(F)cc4)sc4cc(O)ccc34)cc2)CC1)C(C)(C)C)c1ccc(C#N)cc1` [Compound 147, (2S,4R)—N-[(1S)-1-(4-cyanophenyl)ethyl]-1-[(2S)-2-[2-(2-[2-[4-(4-[[2-(4-fluorophenyl)-6-hydroxy-1-benzothiophen-3-yl]oxy]phenyl)piperidin-1-yl]ethoxy]ethoxy)acetamido]-3,3-dimethylbutanoyl]-4-hydroxypyrrolidine-2-carboxamide], the IC50 on ERα [1] is 1 nM. On ERα [2], the DC50 was 1 to 10 nM and the Dmax is more than 75%.

In the case of `C[C@H](NC(=O)[C@@H]1C[C@@H](O)CN1C(=O)[C@@H](NC(=O)Cc1ccc(-c2ccn(CCOc3ccc(Oc4c(-c5ccc(F)cc5)sc5cc(O)ccc45)cc3)n2)cc1)C(C)(C)C)c1ccc(C#N)cc1` [Compound 149], the IC50 on ERα [1] was determined as 1.4 nM. Moreover, on ERα [2], the DC50 is 1 to 10 nM and the Dmax is more than 75%.

As for `C[C@H](NC(=O)[C@@H]1C[C@@H](O)CN1C(=O)[C@@H](NC(=O)Cc1ccc(-c2ccn(CCOc3ccc(Oc4c(-c5ccc(F)cc5)sc5cc(O)ccc45)cc3)n2)cc1)C(C)(C)C)c1ccc(Cl)cc1` [Compound 150, (2S,4R)-N-[(1S)-1-(4-chlorophenyl)ethyl]-1-[(2S)-2-[2-(4-[1-[2-[4-[[2(4-fluorophenyl)-6-hydroxy-1-benzothiophen-3-yl]oxy]phenoxy)ethyl]-1H-pyrazol-3-yl]phenyl)acetamido]-3,3-dimethylbutanoyl]-4-hydroxypyrrolidine-2-carboxamide], on ERα [1], the IC50 amounted to 17 nM. At ERα [2], this molecule returned a DC50 of 10 to 100 nM and a Dmax of more than 75%.

In the case of `Cc1ncsc1-c1ccc(CNC(=O)[C@@H]2C[C@@H](O)CN2C(=O)[C@@H](NC(=O)COCCN2CCN(CCOc3ccc(Oc4c(-c5ccc(Cl)cc5)sc5cc(O)ccc45)cc3)CC2)C(C)(C)C)cc1` [Compound 151, (2S,4R)-1-[(2S)-2-[2-(2-[4-[2-(4-[[2-(4-chlorophenyl)-6-hydroxy-1-benzothiophen-3-yl]oxy]phenoxy)ethyl]piperazin-1-yl]ethoxy)acetamido]-3,3-dimethylbutanoyl]-4-hydroxy-N-[[4-(4-methyl-1,3-thiazol-5-yl)phenyl]methyl]pyrrolidine-2-carboxamide], at ERα [1], the IC50 was 0.4 nM. At ERα [2], this molecule returned a half-maximal degradation concentration (DC50) of less than 1 nM and a Dmax of more than 75%.

Take `Cc1ncsc1-c1ccc([C@H](C)NC(=O)[C@@H]2C[C@@H](O)CN2C(=O)[C@@H](NC(=O)COCCN2CCN(CCOc3ccc(Oc4c(-c5ccc(Br)cc5)sc5cc(O)ccc45)cc3)CC2)C(C)(C)C)cc1` [Compound 153, (2S,4R)-1-[(2S)-2-[2-(2-[4-[2-(4-[[2-(4-bromophenyl)-6-hydroxy-1-benzothiophen-3-yl]oxy]phenoxy)ethyl]piperazin-1-yl]ethoxy)acetamido]-3,3-dimethylbutanoyl]-4-hydroxy-N-[(1S)-1-[4-(4-methyl-1,3-thiazol-5-yl)phenyl]ethyl]pyrrolidine-2-carboxamide]: the IC50 on ERα [1] was 3.2 nM. At ERα [2], this molecule returned a DC50 of 1 to 10 nM and a Dmax of more than 75%.

Regarding `Cc1ncsc1-c1ccc(CNC(=O)[C@@H]2C[C@@H](O)CN2C(=O)[C@@H](NC(=O)CN2CCN(CCOCCOc3ccc(Oc4c(-c5ccc(Br)cc5)sc5cc(O)ccc45)cc3)CC2)C(C)(C)C)cc1` [Compound 158, (2S,4R)-1-[(2S)-2-[2-(4-[2-[2-(4-[[2-(4-bromophenyl)-6-hydroxy-1-benzothiophen-3-yl]oxy]phenoxy)ethoxy]ethyl]piperazin-1-yl)acetamido]-3,3-dimethylbutanoyl]-4-hydroxy-N-[[4-(4-methyl-1,3-thiazol-5-yl)phenyl]methyl]pyrrolidine-2-carboxamide], the IC50 on ERα [1] turned out to be 13.7 nM. At ERα [2], this molecule came in with a DC50 of 10 to 100 nM and a Dmax of more than 75%.

On to `Cc1ncsc1-c1ccc(CNC(=O)[C@@H]2C[C@@H](O)CN2C(=O)[C@@H](NC(=O)CN2CCC(N3CC(OCCOc4ccc(Oc5c(-c6ccc(Br)cc6)sc6cc(O)ccc56)cc4)C3)CC2)C(C)(C)C)cc1` [Compound 160, (2S,4R)-1-[(2S)-2-[2-(4-[3-[2-(4-[[2-(4-bromophenyl)-6-hydroxy-1-benzothiophen-3-yl]oxy]phenoxy)ethoxy]azetidin-1-yl]piperidin-1-yl)acetamido]-3,3-dimethylbutanoyl]-4-hydroxy-N-[[4-(4-methyl-1,3-thiazol-5-yl)phenyl]methyl]pyrrolidine-2-carboxamide], for which the IC50 on ERα [1] was 6.3 nM. On ERα [2], this molecule came in with a DC50 of 1 to 10 nM and a Dmax of more than 75%.
